Experimental data reported in US20240300927A1, “AMIDES AS CBL-B INHIBITORS” (Genentech, Inc., priority 2021, published 2024).
≈ marks a conversion by molar mass, not a printed value. Like-named read-outs stand apart in the source and are kept apart here.

Assays:
[1] = biological target: Cbl-b (Homo sapiens (Human), UniProt Q13191); assay: Cbl-b LCK Ub TR-FRET assay (Cbl-b Lck HTRF); assay type: biochemical
Method in brief: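 Biotin-Cbl-b (16 nM) or biotin-c-Cbl (12 nM) at 2× preincubated with compound 60 min, then His-LCK (120 nM), 1 mM ATP and MgCl2 (2× mix) added for 90 min at RT. Buffer: HEPES pH 7.0, DTT. UBE2D2–HA-ubiquitin transfer read by TR-FRET (665/615 nm); IC50 versus no-LCK and DMSO controls, 10-point dilutions.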

[2] = biological target: CYP3A4 (Homo sapiens (Human), UniProt P08684); assay: Reversible CYP inhibition, CYP3A4; assay type: in vitro ADME
Sequence of CYP3A4 (P08684 whole entry): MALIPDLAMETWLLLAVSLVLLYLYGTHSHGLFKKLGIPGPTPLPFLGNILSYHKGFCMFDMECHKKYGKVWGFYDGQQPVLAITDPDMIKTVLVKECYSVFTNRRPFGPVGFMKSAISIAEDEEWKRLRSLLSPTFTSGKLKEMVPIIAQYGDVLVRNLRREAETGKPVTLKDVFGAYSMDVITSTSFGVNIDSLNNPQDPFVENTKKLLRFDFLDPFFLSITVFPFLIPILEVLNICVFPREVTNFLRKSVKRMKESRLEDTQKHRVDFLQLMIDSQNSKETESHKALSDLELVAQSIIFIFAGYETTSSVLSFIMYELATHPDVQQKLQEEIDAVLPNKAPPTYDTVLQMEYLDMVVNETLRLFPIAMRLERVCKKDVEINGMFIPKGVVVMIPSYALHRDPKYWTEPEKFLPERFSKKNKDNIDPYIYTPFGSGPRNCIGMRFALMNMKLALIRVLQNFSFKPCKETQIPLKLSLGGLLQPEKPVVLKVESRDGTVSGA
Excerpt: Reversible CYP inhibition by compounds described herein can be measured by protocols described by Halladay, J. S.; Delarosa, E. M.; Tran, D.; Wang, L.; Wong, S.; Khojasteh, S. C., “High-Throughput, 384-Well, LC-MS/MS CYP Inhibition Assay Using Automation, Cassette-Analysis Technique, and Streamlined Data Analysis”, Drug. Metab. Lett. 2011, 5 (3), 220-230, incorporated herein by reference.
In the CYP3A4 measurements, potency is less desirable.

[3] = Kinetic solubility; assay type: physicochemical; conditions: kinetic from dmso stock
[4] = biological target: Human Cbl-b (residues 40-426) (Homo sapiens (Human), UniProt Q13191); assay: Cbl-b SPR assay (incl. multi-point chaser variation); assay type: binding
Sequence of Human Cbl-b (residues 40-426) (Q13191 40-426): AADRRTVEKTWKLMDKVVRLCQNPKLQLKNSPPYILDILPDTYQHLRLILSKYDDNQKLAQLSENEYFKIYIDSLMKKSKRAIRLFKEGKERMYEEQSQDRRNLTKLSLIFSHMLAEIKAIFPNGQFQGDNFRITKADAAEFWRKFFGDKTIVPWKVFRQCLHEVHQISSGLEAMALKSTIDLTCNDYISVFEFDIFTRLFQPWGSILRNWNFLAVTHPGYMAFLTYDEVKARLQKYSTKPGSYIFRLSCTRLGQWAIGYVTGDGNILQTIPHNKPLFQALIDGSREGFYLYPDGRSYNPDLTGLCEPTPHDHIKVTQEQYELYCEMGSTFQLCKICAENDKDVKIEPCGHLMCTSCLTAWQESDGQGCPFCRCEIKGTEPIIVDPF
Protocol: Affinity of binding to Cbl-b and c-Cbl for compounds described herein can be assessed by surface plasmon resonance (SPR) according to the following protocol. All experiments were recorded on a Biacore™ 8K or Biacore™ 8K+ (Cytiva) with both surface preparation and experimental measurements performed at 20° C. in an assay buffer consisting of 50 mM HEPES, pH 7.5, 0.15 M NaCl, 0.001% (v/v) Tween® 20, 0.2 mM tris(2-carboxyethyl)phosphine, 0.025% (w/v) carboxymethylated dextran (average MW 10 kDa), 0.2% (w/v) PEG 3350, and 2% DMSO. […]
For SPR measurements, 6 concentrations with 2 fold serial dilution were measured with blanks flanking each series for double referencing. […] SPR sensorgrams were recorded in multi-cycle kinetics format, with a contact time of 60 seconds and a flow rate of 40 μl/min, the dissociation time was varied between 120-1200 seconds aiming for 4-5 half-lives of the measured interaction. […]
In the case of potent compounds, the protein-compound half-life cannot be accurately measured using routine fitting of the single cycle titration data. The kd is measured independently by determining the percentage unoccupied compound binding site over time by measuring the binding of a chaser compound measured by SPR.
Chaser binding was measured by a multicycle kinetics SPR experiment using a contact time of 20 seconds, a flow rate of […], and a dissociation time of 120 seconds. […]

Sequence of Cbl-b (Q13191 40-426): as above

(fold-selectivity) ([1]; Cbl-b and C-Cbl selectivity, Lck HTRF): (0.66x)
IC50 ([1]; Table 4 comparative data, read-out: Lck IC50): 7.5 nM
IC50 ([1]; read-out: Cbl-b Lck HTRF IC50): 7.5 nM
Lck IC50 (select.) ([1]; selectivity, Table 4): 0.68 x
IC50 ([2]; M, read-out: CYP3A4 IC50 (M/T)): 640 nM
IC50 ([2]; T): 6700 nM
solubility ([3]; value in parentheses, not explained, read-out: Kinet. Solub. (uM), second value in parentheses): 8.5 µM (≈ 4.91 µg/mL)
solubility ([3]; read-out: Kinet. Solub.): 8.3 µM (≈ 4.8 µg/mL)
Kd ([4]; read-out: SPR Kd kin): 5.6 nM
SPR Kd kin (select.) ([4]; selectivity): 1.3 x
SMILES: CC(C)[C@H]1CN(C)CCN1Cc1cc(C(=O)Nc2cccc(C3(Cc4nncn4C)CC(F)(F)C3)c2)nc(C2CC2)c1 [Compound 224, (S)-6-cyclopropyl-N-(3-(3,3-difluoro-1-((4-methyl-4H-1,2,4-triazol-3-yl)methyl)cyclobutyl)phenyl)-4-((2-isopropyl-4-methylpiperazin-1-yl)methyl)picolinamide]
